Laboratory results reported in paper PMC10149367, “The ferroptosis inducing compounds RSL3 and ML162 are not direct inhibitors of GPX4 but of TXNRD1” (Redox Biology, 2023).

Experiments:
GPX1 = molecular target: T1, GPX1 (Homo sapiens, UniProt P07203); test: GPX1 activity assay, pure enzyme (NADPH consumption, cumene hydroperoxide); type: biochemical; settings: for IC50: recombinant GPX1, 30 min preincubation, read-out: IC50 GPX1 inhibition
T1 construct: made in house
T1 sequence (P07203 1-203): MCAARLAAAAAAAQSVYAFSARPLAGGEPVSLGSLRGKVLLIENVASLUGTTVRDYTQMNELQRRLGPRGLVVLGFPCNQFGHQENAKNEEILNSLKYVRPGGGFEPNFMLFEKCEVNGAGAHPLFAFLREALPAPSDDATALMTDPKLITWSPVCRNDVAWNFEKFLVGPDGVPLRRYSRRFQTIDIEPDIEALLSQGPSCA
Method: (§1) Recombinant human proteins—Recombinant human selenoprotein GPX and TXNRD isoenzymes as well as recombinant human GR were cloned, expressed, and purified as described previously [[26], [27], [28]].
(§2) Biochemical assays—GPX assays were run as previously described [[26], [27], [28]] in a clear medium-binding 96-well SpectraPlates (PerkinElmer). Briefly, 198 μL of 10 nM GPX1 or 200 nM GPX4 were incubated with 2 μL compounds or DMSO in TES buffer (50 mM Tris-HCl, 2 mM EDTA (pH 7.5), 150 mM NaCl) with BSA at room temperature for 30 min. Then, 40 μL of master mix (100 nM GR, 1 mM GSH, 0.5 mM NADPH in TES buffer) was added. To start the reaction, 10 μL of Cumene hydroperoxide ([0.5 mM] in 50% EtOH) was then added. Absorbance at 340 nm was measured using a Tecan Infinite® M Nano microplate reader every 20 s for 30 min. Four replicates were run, unless otherwise stated.

TXNRD1 [1] = molecular target: T2, TXNRD1 (Homo sapiens, UniProt Q16881); test: TXNRD1 activity assay, pure enzyme (Fig. 1A); type: biochemical
T2 construct: made in house
T2 sequence (Q16881 1-499 isoform Q16881-5): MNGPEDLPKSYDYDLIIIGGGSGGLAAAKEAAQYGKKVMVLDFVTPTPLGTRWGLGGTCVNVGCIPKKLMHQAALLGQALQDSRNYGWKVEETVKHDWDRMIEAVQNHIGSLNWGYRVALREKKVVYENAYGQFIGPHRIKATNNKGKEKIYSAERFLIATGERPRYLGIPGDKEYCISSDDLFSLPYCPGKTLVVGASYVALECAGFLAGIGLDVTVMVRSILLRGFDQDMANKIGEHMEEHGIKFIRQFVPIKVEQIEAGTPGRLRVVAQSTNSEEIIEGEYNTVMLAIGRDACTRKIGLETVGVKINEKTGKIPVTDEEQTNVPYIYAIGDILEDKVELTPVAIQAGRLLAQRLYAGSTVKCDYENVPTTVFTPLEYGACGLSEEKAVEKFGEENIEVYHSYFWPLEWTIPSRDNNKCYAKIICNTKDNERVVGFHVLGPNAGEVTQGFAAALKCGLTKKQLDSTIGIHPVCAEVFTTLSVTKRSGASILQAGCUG
Method: as §1
(§3) TXNRD1 selenite and DTNB assays were run as previously described [[26], [27], [28]]. Dose-response curves and IC50s were generated using Excel and GraphPad Prism. Briefly, initial slopes of NADPH consumption were normalized to DMSO controls and IC50s were calculated using log(inhibitor) vs. response—Variable slope (four parameters).

[2] = test system: malondialdehyde (MDA) and Ptgs2 mRNA levels; set-up: method as in PMID 32732975; settings: hemochromatosis mouse model; reversed by Ferrostatin-1; cited from earlier work
GPX4 [3] = test system: GPX4; set-up: method as in PMID 33812801; settings: cited from earlier work
GPX4 [4] = molecular target: T3, GPX4 (Homo sapiens, UniProt P36969); test: GPX4 activity assay, pure enzyme (NADPH consumption, cumene hydroperoxide); type: biochemical; settings: for IC50: recombinant GPX4, 30 min preincubation, read-out: IC50 GPX4 inhibition
T3 construct: made in house
T3 sequence (P36969 1-170 isoform P36969-2): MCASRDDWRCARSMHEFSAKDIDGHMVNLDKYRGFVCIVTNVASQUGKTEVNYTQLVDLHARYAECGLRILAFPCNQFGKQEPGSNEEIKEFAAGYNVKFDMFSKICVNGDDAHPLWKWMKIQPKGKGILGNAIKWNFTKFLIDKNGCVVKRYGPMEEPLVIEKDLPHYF
Method: as §1, §2

TXNRD1 [5] = molecular target: T2, TXNRD1; test: TXNRD1 orthogonal assays (selenite reduction, DTNB reduction; Extended Data Fig. 2); type: biochemical; settings: selenite and DTNB assays
Method: as §3
Supplementary Data Extended Data Set
(Extended Data Fig. 2A, left panel). Measuring inhibition of TXNRD1 activity, as a complement to the analyses shown in the main text of this article, we also assessed this using two orthogonal approaches: 1. by the measurement of NADPH consumption coupled to direct selenite reduction of TXNRD1, either through the decrease in absorbance at 340 nm or decrease in its fluorescence, and 2. measuring TXNRD1-catalyzed DTNB reduction based upon quantification of TNB- anions absorbing at 412 nm as formed upon TXNRD1-catalyzed reduction of the disulfide in DTNB. Using these assays, we could confirm that the RSL3 inhibition of TXNRD1 was not an artifact due to specific assay conditions, with both RSL3 and ML162 showing complete inhibition of TXNRD1 at the higher end of the concentrations assessed here (2.8 ± 0.9% and 5.8 ± 0.9% remaining activity with just 5 µM of RSL3 and […]
ML162 (Extended Data Fig. 2A, middle and right panels, and 2B). […]
any inhibition of TXNRD1 in any of the assays. […]
µM, respectively (Extended Data Fig. 2B). Like with TRi-1 and TRi-2, inhibition of both TXNRD1 and TXNRD2 by RSL3 and ML162 was essentially dependent on pre-reduction of the enzyme by NADPH in order to yield potent and complete inactivation. Both compounds […]
ML162 in the absence of NADPH and subsequently assayed for activity; however, this could also be due to carry-over of the compounds to the NADPH dependent enzyme activity assay.
Because the reduction step with NADPH reduces a selenenylsulfide at the C-terminal active […]
of the selenolate at the C-terminal active site of the NADPH-reduced enzyme. That some […]
compounds might also bind some other additional site(s) in the enzyme. That notion is further strengthened by the fact that thermostability of TXNRD1 was also affected at higher concentrations of compounds when incubated with the enzyme in the absence of NADPH (see […]
dose-response curve fit to the average of n = 3 technical replicates. […]
well (middle left panel) and 1536-well format (not shown), as well as a DTNB assay (middle […]
TXNRD2 by RSL3 (left panel), ML162 (middle left panel), TRi-1 (middle right panel), and TRi-2 (right panel) are modulated by NADPH pre-treatment; Data are presented as mean ± s.d.; Four-parameter dose-response curve fit to the average of n = 3 technical replicates (n = 2

GPX4 [6] = molecular target: T3, GPX4; test: nano differential scanning fluorimetry, GPX4; type: binding; settings: 100 μM compound; DMSO control 51.7 °C
Method: Nano differential scanning fluorimetry—Real-time monitoring of fluorescence emission at 330 nm and 350 nm (excitation wavelength: 280 nm) and backscattering absorbance of GPX4 and TXNRD1 samples in the presence of compound was performed using a NanoTemper Prometheus NT.48 instrument. First, 0.25 mg/mL enzyme was incubated with 100 μM compound or DMSO for 15 min at room temperature. Standard capillaries were used, and temperature was increased from 25 to 95 °C with a ramp rate of 4.0 °C/min. Three biological replicates were carried out for each condition, and their means and standard deviations are depicted.

TXNRD1 [7] = molecular target: T4, TXNRD1 (Homo sapiens, UniProt Q16881); test: Cellular TXNRD1 assay with RX1 probe in A549 cells; type: cell-based
T4 construct: RX1 probe that specifically reports upon TXNRD1 enzymatic activity in live cells; endogenous in cells; host or cells: A549
T4 sequence (Q16881 151-649 limits assumed): T2 sequence (Q16881 1-499 isoform Q16881-5)
Method: Cellular TXNRD1 assay—20,000 or 10,000 A549 cells (for 4 h or 12 h and 24 h compound incubation respectively) were seeded in 96-well plates (microplates, 96 well, F-bottom, black, clear bottom, ViewPlateTM-96 F TC, PerkinElmer), in a total volume of 100 μL full DMEM (supplemented with 10% FBS and 100 nM Na2SeO3). […] The cells were subsequently incubated for the respective mentioned time, washed once with full DMEM and fresh, full DMEM, containing 75 μM RX1 and 0.75% DMSO, was added and the first fluorescent measurement was conducted immediately (timepoint = 0) using a Tecan Infinite M200 plate reader (ex/em 355/520). To follow the kinetic activation of RX1, a fluorescent measurement was done every hour for 6 h. Between measurements, cells were stored at 37 °C and 5% CO2. As a control, cells treated with compounds, but not with RX1, just the respective DMSO content, were used for background fluorescent. To determine how the cells were viable throughout the RX1 assay, the control cells were used for a viability measurement, using CellTiter-Glo® Luminescent Cell Viability Assay, after the final fluorescent measurement. For final data analysis, raw data was processed using Microsoft Excel and GraphPad Prism. In brief, the slope of the activated RX1 fluorescence increase was in each case calculated and normalized, using the viability measurement of the control cells.

A549 cells = test: A549 viability in cellular TXNRD1 (RX1) experiments; settings: A549, 4 h, Extended Data Fig. 3A
Method: Cellular TXNRD1 assay—20,000 or 10,000 A549 cells (for 4 h or 12 h and 24 h compound incubation respectively) were seeded in 96-well plates (microplates, 96 well, F-bottom, black, clear bottom, ViewPlateTM-96 F TC, PerkinElmer), in a total volume of 100 μL full DMEM (supplemented with 10% FBS and 100 nM Na2SeO3). The cells were incubated for 16 h at 37 °C and 5% CO2, followed by media change and addition of indicated compounds at respective concentrations (0.1 μM–20 μM), including 0.6% DMSO. The cells were subsequently incubated for the respective mentioned time, washed once with full DMEM and fresh, full DMEM, containing 75 μM RX1 and 0.75% DMSO, was added and the first fluorescent measurement was conducted immediately (timepoint = 0) using a Tecan Infinite M200 plate reader (ex/em 355/520). To follow the kinetic activation of RX1, a fluorescent measurement was done every hour for 6 h. Between measurements, cells were stored at 37 °C and 5% CO2. As a control, cells treated with compounds, but not with RX1, just the respective DMSO content, were used for background fluorescent. To determine how the cells were viable throughout the RX1 assay, the control cells were used for a viability measurement, using CellTiter-Glo® Luminescent Cell Viability Assay, after the final fluorescent measurement. For final data analysis, raw data was processed using Microsoft Excel and GraphPad Prism. In brief, the slope of the activated RX1 fluorescence increase was in each case calculated and normalized, using the viability measurement of the control cells.
Extended Data Figure 3: A549 cytotoxicity in cellular TXNRD1 experiments following final
A) Cell viability following 4-hour incubation with
compounds; B) Viability following 12-hour incubation with compounds; C) Viability
following 24 -hour incubation with compounds. The cell viability in was in each case measured
using the Cell Quanti-BlueTM Cell Viability Assay Kit and the data are presented as mean ±
s.d. of n = 3 biological replicates, each containing n = 3 technical replicates.

[8] = recombinant selenoprotein, pure enzyme system

CC(=O)OC[C@H]1O[C@@H]([S-])[C@H](OC(C)=O)[C@@H](OC(C)=O)[C@@H]1OC(C)=O.CCP(CC)CC.[Au+] [Auranofin, auranofin]
IC50 (GPX1): 4.7 µM | IC50 (TXNRD1 [1]; recombinant TXNRD1, Fig. 1A assay conditions, read-out: IC50 TXNRD1 inhibition): ~19 µM | Hepatic malondialdehyde (MDA) and Ptgs2 mRNA levels [2]: increase in hepatic malondialdehyde (MDA) | Effect on GPX4 expression levels (GPX4 [3]): decrease GPX4 expression levels

Cc1onc(C(=O)N2CCN(C(c3ccc(Cl)cc3)c3ccc(Cl)cc3)CC2)c1[N+](=O)[O-] [ML210]
Inhibition of GPX1 (GPX1; [8]): neither RSL3, ML162, nor ML210 inhibited either GPX isoenzyme | Inhibition of GPX4 (GPX4 [4]; [8]): neither RSL3, ML162, nor ML210 inhibited either GPX isoenzyme | Inhibition of TXNRD1 in any of the assays (TXNRD1 [5]): did not show any inhibition of TXNRD1 | Tm of GPX4 (nanoDSF) (GPX4 [6]): 52.1 °C | Effect on cellular TXNRD1 activity (RX1) (TXNRD1 [7]; A549, 20 μM): slightly suppressed TXNRD1 activity | Effect on cellular TXNRD1 activity (RX1) (TXNRD1 [7]; A549, 0.5–1 μM): tendency to increase the TXNRD1 activity | Effect on cellular TXNRD1 activity (RX1) at 4 h (TXNRD1 [7]; A549, 4 h incubation, RSL3 and ML162 at 1 μM or higher): increase in TXNRD1 activity | Effect on cell viability at 4 h (A549 cells): no overt effects on viability

OC[C@H]1O[C@H]([S-])[C@H](O)[C@@H](O)[C@@H]1O.[Au+] [aurothioglucose]
Specificity among GPX1, GPX4, GR and TXNRD1 (TXNRD1 [1]; pure enzyme systems, Fig. 1A lower panels): only showed TXNRD1 inhibition

O=C(O)CC(S)C(=O)O (centres unmarked) [mercaptosuccinic acid]
IC50 (GPX1): < 10 µM | IC50 (GPX4 [4]): < 10 µM

[Cl][Hg][Cl] [mercuric chloride]
IC50 (GPX1): < 10 µM | IC50 (GPX4 [4]): < 10 µM
